In paper PMC9161374 (Science Translational Medicine, 2022):
pEC50: −log10 of the molar value. “And” between values parts separate entries of the source, which are not always exact repeats. Identical values can stand only once.

Key:
[1] = test system: SARS-CoV-2 replicon system (pBAC-SARS-CoV-2-Replicon-Luc); assay: microbe, parasite or virus in culture; type: cell-based
[2] = test system: SARS-CoV-2 (B.1); assay: Anti-SARS-CoV-2 activity in Vero E6 cells (viral yield by qRT-PCR); type: cell-based
[3] = test system: SARS-CoV-2 (Beta, B.1.351); assay: microbe, parasite or virus in culture; type: cell-based; settings: for % Inhibition: beta
[4] = test system: SARS-CoV-2 (Delta, B.1.617.2); assay: microbe, parasite or virus in culture; type: cell-based; settings: for % Inhibition: delta
[5] = test system: SARS-CoV-2 (B.1) in Huh7 cells; assay: Anti-SARS-CoV-2 activity in Huh7 cells (viral yield by qRT-PCR); type: cell-based; settings: B.1, MOI 0.05, 48 h
[6] = CCK-8 cell viability assay; type: cell-based, African green monkey; settings: African green monkey; Vero E6 cells, 48 h, CCK8
Method in brief: (§1)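 Vero E6 cells, 20,000/well, exposed to compound at 0–200 μM (0, 0.01, 0.1, 1, 5, 10, 50, 75, 100, 200 μM) for 48 h; viability read by CCK-8 and expressed as percentage versus drug concentration, mean ± SD.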

[7] = test system: Vero E6 cells; assay: CCK-8 cell viability assay; type: cell-based, African green monkey; settings: individual replicate values, Fig.S4
Method in brief: as §1

[8] = test system: SARS-CoV-2 (Omicron, B.1.1.529); assay: microbe, parasite or virus in culture
[9] = Severe acute respiratory syndrome coronavirus 2, Vero C1008, read-out: EC90 (Confidence 95%)

CC(C)C(=O)OC[C@H]1O[C@@](C#N)(c2ccc3c(N)ncnn23)[C@H](O)[C@@H]1O [ATV006]
activity in the replicon system in comparison with parent GS-441524 [1]: improved the inhibitory activities | pEC50 ([1]; Severe acute respiratory syndrome coronavirus 2, HEK-293T, 60 h, read-out: EC50 (Confidence 95%), replicon): 6.28 | EC90 ([1]; Severe acute respiratory syndrome coronavirus 2, HEK-293T, 60 h, read-out: EC90 (Confidence 95%), replicon): 3.23 µM | % Inhibition ([2]; 1 μM, replicates, sheet Fig.S3): 3.722% | % Inhibition ([2]; 2 μM, replicates, sheet Fig.S3): 87.0049% | % Inhibition ([2]; 5 μM, replicates, sheet Fig.S3): 91.6411% | % Inhibition ([2]; 10 μM, replicates, sheet Fig.S3): 90.9393% | % Inhibition ([2]; B.1, 1 uM, Vero E6, replicates, 1 µM): 3.249% | % Inhibition ([2]; B.1, 2 uM, Vero E6, replicates, 2 µM): 99.386% | % Inhibition ([2]; B.1, 5 uM, Vero E6, replicates, 5 µM): 99.8149% | % Inhibition ([2]; B.1, 10 uM, Vero E6, replicates, 10 µM): 99.9851% | % Inhibition ([2]; B.1, 50 uM, Vero E6, replicates, 50 µM): 99.991% | inhibition at 0.1 µM ([2]; Severe acute respiratory syndrome coronavirus 2, Vero C1008, 0.1 μM, replicates, sheet Fig.S3): 0% | inhibition at 0.5 µM ([2]; Severe acute respiratory syndrome coronavirus 2, Vero C1008, 0.5 μM, replicates, sheet Fig.S3): 0% | inhibition at 2 µM ([2]; Severe acute respiratory syndrome coronavirus 2, Vero C1008, 2 μM, replicates, sheet Fig.S3): 87.7% | inhibition at 5 µM ([2]; Severe acute respiratory syndrome coronavirus 2, Vero C1008, 5 μM, replicates, sheet Fig.S3): 93.3% | inhibition at 10 µM ([2]; Severe acute respiratory syndrome coronavirus 2, Vero C1008, 10 μM, replicates, sheet Fig.S3): 93.2% | inhibition at 0.01 µM ([2]; Severe acute respiratory syndrome coronavirus 2, Vero C1008, B.1, 0.01 uM, Vero E6, replicates): 0% | inhibition at 0.1 µM ([2]; Severe acute respiratory syndrome coronavirus 2, Vero C1008, B.1, 0.1 uM, Vero E6, replicates): 0% | inhibition at 0.25 µM ([2]; Severe acute respiratory syndrome coronavirus 2, Vero C1008, B.1, 0.25 uM, Vero E6, replicates): 0% | inhibition at 0.5 µM ([2]; Severe acute respiratory syndrome coronavirus 2, Vero C1008, B.1, 0.5 uM, Vero E6, replicates): 0% | inhibition at 1 µM ([2]; Severe acute respiratory syndrome coronavirus 2, Vero C1008, B.1, 1 uM, Vero E6, replicates): 3.85% | inhibition at 2 µM ([2]; Severe acute respiratory syndrome coronavirus 2, Vero C1008, B.1, 2 uM, Vero E6, replicates): 97.4% | inhibition at 5 µM ([2]; Severe acute respiratory syndrome coronavirus 2, Vero C1008, B.1, 5 uM, Vero E6, replicates): 99.8% | inhibition at 10 µM ([2]; Severe acute respiratory syndrome coronavirus 2, Vero C1008, B.1, 10 uM, Vero E6, replicates): 99.9% | inhibition at 50 µM ([2]; Severe acute respiratory syndrome coronavirus 2, Vero C1008, B.1, 50 uM, Vero E6, replicates): 100% | EC90 [2, 9]: 2.18 µM | pEC50 ([2]; Severe acute respiratory syndrome coronavirus 2, Vero C1008, MOI 0.05, 48 h): 5.87 | pEC50 ([3]; Severe acute respiratory syndrome coronavirus 2, Vero C1008, 48 h, read-out: EC50 in Vero E6 cells, SARS-CoV-2 (Beta, B.1.351)): 5.95 | inhibition at 0.01 µM ([3]; Severe acute respiratory syndrome coronavirus 2, Vero C1008, beta, 0.01 uM, Vero E6, replicates): 0% | inhibition at 0.1 µM ([3]; Severe acute respiratory syndrome coronavirus 2, Vero C1008, beta, 0.1 uM, Vero E6, replicates): 0% | inhibition at 0.25 µM ([3]; Severe acute respiratory syndrome coronavirus 2, Vero C1008, beta, 0.25 uM, Vero E6, replicates): 0% | inhibition at 0.5 µM ([3]; Severe acute respiratory syndrome coronavirus 2, Vero C1008, beta, 0.5 uM, Vero E6, replicates): 0% | inhibition at 1 µM ([3]; Severe acute respiratory syndrome coronavirus 2, Vero C1008, beta, 1 uM, Vero E6, replicates): 32.1% | inhibition at 2 µM ([3]; Severe acute respiratory syndrome coronavirus 2, Vero C1008, beta, 2 uM, Vero E6, replicates): 99.6% | inhibition at 5 µM ([3]; Severe acute respiratory syndrome coronavirus 2, Vero C1008, beta, 5 uM, Vero E6, replicates): 99.7% | inhibition at 10 µM ([3]; Severe acute respiratory syndrome coronavirus 2, Vero C1008, beta, 10 uM, Vero E6, replicates): 99.9% | inhibition at 50 µM ([3]; Severe acute respiratory syndrome coronavirus 2, Vero C1008, beta, 50 uM, Vero E6, replicates): 99.9% | EC90 ([3]; Severe acute respiratory syndrome coronavirus 2, Vero C1008, read-out: EC90 (Confidence 95%), Vero-E6, Beta B.1.351): 1.36 µM | % Inhibition ([3]; 1 uM, Vero E6, replicates): 16.537% | % Inhibition ([3]; 2 uM, Vero E6, replicates): 99.486% | % Inhibition ([3]; 5 uM, Vero E6, replicates): 99.5312% | % Inhibition ([3]; 10 uM, Vero E6, replicates): 99.9431% | % Inhibition ([3]; 50 uM, Vero E6, replicates): 99.9484% | pEC50 ([4]; Severe acute respiratory syndrome coronavirus 2, Vero C1008, 48 h, read-out: EC50 in Vero E6 cells, SARS-CoV-2 (Delta, B.1.617.2)): 6.46 | inhibition at 0.01 µM ([4]; Severe acute respiratory syndrome coronavirus 2, Vero C1008, delta, 0.01 uM, Vero E6, replicates): 0% | inhibition at 0.1 µM ([4]; Severe acute respiratory syndrome coronavirus 2, Vero C1008, delta, 0.1 uM, Vero E6, replicates): 0% | inhibition at 0.25 µM ([4]; Severe acute respiratory syndrome coronavirus 2, Vero C1008, delta, 0.25 uM, Vero E6, replicates): 13.4% | inhibition at 0.5 µM ([4]; Severe acute respiratory syndrome coronavirus 2, Vero C1008, delta, 0.5 uM, Vero E6, replicates): 86.8% | inhibition at 1 µM ([4]; Severe acute respiratory syndrome coronavirus 2, Vero C1008, delta, 1 uM, Vero E6, replicates): 94.7% | inhibition at 2 µM ([4]; Severe acute respiratory syndrome coronavirus 2, Vero C1008, delta, 2 uM, Vero E6, replicates): 96.7% | inhibition at 5 µM ([4]; Severe acute respiratory syndrome coronavirus 2, Vero C1008, delta, 5 uM, Vero E6, replicates): 95.5% | inhibition at 10 µM ([4]; Severe acute respiratory syndrome coronavirus 2, Vero C1008, delta, 10 uM, Vero E6, replicates): 99.9% | inhibition at 50 µM ([4]; Severe acute respiratory syndrome coronavirus 2, Vero C1008, delta, 50 uM, Vero E6, replicates): 99.9% | EC90 ([4]; Severe acute respiratory syndrome coronavirus 2, Vero C1008, read-out: EC90 (Confidence 95%), Vero-E6, Delta B.1.617.2): 0.506 µM | % Inhibition ([4]; 0.25 uM, Vero E6, replicates): 17.4307% | % Inhibition ([4]; 0.5 uM, Vero E6, replicates): 86.6826% | % Inhibition ([4]; 1 uM, Vero E6, replicates): 92.7523% | % Inhibition ([4]; 2 uM, Vero E6, replicates): 95.2669% | % Inhibition ([4]; 5 uM, Vero E6, replicates): 93.5585% | % Inhibition ([4]; 10 uM, Vero E6, replicates): 99.4329% | % Inhibition ([4]; 50 uM, Vero E6, replicates): 99.3835% | pEC50 ([5]; Severe acute respiratory syndrome coronavirus 2, Huh-7, read-out: EC50 (Confidence 95%) in Huh7 cells): 5.79 | EC90 ([5]; Severe acute respiratory syndrome coronavirus 2, Huh-7, read-out: EC90 (Confidence 95%) in Huh7 cells): 1.96 µM | CC50 at 48 h [6]: 128 µM | cell viability (% of control) ([7]; 0.01 μM compound, 0.01 µM): 93.4165 % of control and 118.52 % of control and 111.314 % of control | cell viability (% of control) ([7]; 0.1 μM compound, 0.1 µM): 114.92 % of control and 109.106 % of control and 122.304 % of control | cell viability (% of control) ([7]; 1 μM compound, 1 µM): 103.338 % of control and 92.7243 % of control and 89.4018 % of control | cell viability (% of control) ([7]; 2 μM compound, 2 µM): 94.6163 % of control and 92.5859 % of control and 102 % of control | cell viability (% of control) ([7]; 5 μM compound, 5 µM): 130.333 % of control and 131.994 % of control and 107.906 % of control | cell viability (% of control) ([7]; 10 μM compound, 10 µM): 124.057 % of control and 118.52 % of control and 118.981 % of control | cell viability (% of control) ([7]; 50 μM compound, 50 µM): 93.4165 % of control and 89.4165 % of control | cell viability (% of control) ([7]; 75 μM compound, 75 µM): 60.8815 % of control and 65.7193 % of control and 58.2133 % of control | cell viability (% of control) ([7]; 100 μM compound, 100 µM): 50.7027 % of control and 56.7073 % of control and 50.0144 % of control | cell viability (% of control) ([7]; 200 μM compound, 200 µM): 35.664 % of control and 47.0944 % of control and 42.1024 % of control | pEC50 ([8]; Severe acute respiratory syndrome coronavirus 2, Vero C1008, 48 h, read-out: EC50 in Vero E6 cells, SARS-CoV-2 (Omicron, B.1.1.529)): 6.97 | inhibition at 0.008 µM ([8]; Severe acute respiratory syndrome coronavirus 2, Vero C1008, Omicon, 0.008 uM, Vero E6, replicates): 0% | inhibition at 0.208 µM ([8]; Severe acute respiratory syndrome coronavirus 2, Vero C1008, Omicon, 0.208 uM, Vero E6, replicates): 81.1% | inhibition at 0.625 µM ([8]; Severe acute respiratory syndrome coronavirus 2, Vero C1008, Omicon, 0.625 uM, Vero E6, replicates): 99.7% | inhibition at 2.5 µM ([8]; Severe acute respiratory syndrome coronavirus 2, Vero C1008, Omicon, 2.5 uM, Vero E6, replicates): 99.9% | inhibition at 5 µM ([8]; Severe acute respiratory syndrome coronavirus 2, Vero C1008, Omicon, 5 uM, Vero E6, replicates): 100% | inhibition at 10 µM ([8]; Severe acute respiratory syndrome coronavirus 2, Vero C1008, Omicon, 10 uM, Vero E6, replicates): 100% | EC90 [8, 9]: 0.269 µM
